Measurements: patent US20220160669A1, “PARENTERAL NUTRITION FORMULATION” (BAXTER INTERNATIONAL INC., priority 2020, published 2022)

What was measured:
[1] = tested on: Neonatal Yorkshire/Landrace cross bred piglets; test: Intestinal histomorphology: villus height and crypt depth; format: in vivo, pig; design: key to Villus (total) / Crypt (total): + denotes a positive effect (compared to standard PN); ++ a very positive effect; − denotes no difference; key to Total villus height / Total crypt depth: +++ indicate P < 0.01; ++ indicates P < 0.05; + indicates positive trends; = denotes no significant P value; − denotes negative trends; conditions: for % Δ from PN, Total C (crypt depth) / % Δ from PN, Total V (villus height): sum over sections; for Crypt (total) / Villus (total): all sections, compared to standard PN; for Total crypt depth / Total villus height: compared to standard PN (s-PN)
Description: (§1) Neonatal Yorkshire/Landrace cross bred piglets (n=72; six at a time from the same litter, repeating 12 times) were obtained from Oak Hill Genetics (Ewing, Ill.) after 48-hour sow reared for colostrum consumption and iron supplementation.
Formalin-fixed intestinal samples were embedded in paraffin, sliced to approximately 5-μm thickness with a microtome and stained with hematoxylin and eosin (FIG. 6). Villus height, midvillus width, and crypt depth were measured by using a Nikon Optiphot-2 microscope (Nikon, Melville, N.Y.) and ImagePro Express software (Version 4.5; Media Cybernetics, Inc, Silver Spring, Md.) in 8 to 10 well-oriented villi and crypts. Villus surface area (villus height×midvillus width) was also calculated. In addition, intestinal segment circumference was measured to estimate intestinal surface area. The results are provided in FIGS. 7 through 12 (see there for details). […] The Table summarizes the average difference (in % of each Intervention Group (A, B, C, D) versus the PN Group) of the villus height and the crypt depth in the different sections of the gut, i.e. duodenum, jejunum, ileum and colon. The Intervention Groups show an improved villus height compared to the s-PN Group.

[2] = tested on: pro-inflammatory cytokines I1-1β, I1-6, TNF-α; test: Jejunal cytokine concentration, pro-inflammatory; format: in vivo, pig; conditions: compared to standard PN (s-PN)
Excerpt: as §1
(§2) The influence of the respective supplements on inflammation was investigated by determining Il-6, Il-1beta, TNF-alpha and Il-10 serum levels in the intervention groups compared to EN and PN according to Milo et al., Effects of Short-Chain Fatty Acid-Supplemented Total Parenteral Nutrition on Intestinal Pro-Inflammatory Cytokine Abundance. Digestive Diseases and Sciences 2002; 47:2049-2055. Jejunal and ileal samples were homogenized in double-distilled water, and the Bradford protein assay (Biorad, Hercules, Calif., USA) was performed on homogenate and plasma samples. Protein (30 μg) from each sample was denatured by boiling, and proteins were separated by size using 12.5% sodium dodecyl sulfate polyacrylamide gel electrophoresis. Separated proteins were transferred to polyvinylidene difluoride membranes (Biorad) using a semidry transfer apparatus (Biorad). Western blot analysis for TNF-alpha, IL-1beta, Il-10 and IL-6 was performed using porcine-specific polyclonal antibodies (Endogen, Woburn, Mass., USA). A mouse anti-pig monoclonal TNF-alpha antibody was used to detect TNF-alpha ([…]). Rabbit anti-pig polyclonal antibodies specific for IL-1beta and IL-6 were used to detect IL-1beta (17,500 kDa), Il-10 (18,600 kDa) and IL-6 (26,000 kDa). Membranes were developed using the Opti-4CN kit (Biorad) and photographed using the FOTO/Analyst Image Analysis System (Fotodyne, Inc., Hartland, Wis., USA). Densitometry of TNF-alpha, IL-1beta, IL-6, and Il-10 was performed using Collage Image Analysis Software 4.0 (Fotodyne, Inc.). Results are shown in FIG. 15 (Il-6), FIG. 16 (Illbeta), FIG. 17 (TNF-alpha) and FIG. 18 (Il-10).

[3] = tested on: anti-inflammatory cytokines I1-10; test: Jejunal cytokine concentration, anti-inflammatory; format: in vivo, pig; design: key: +++ indicate P < 0.01; ++ indicates P < 0.05; + indicates positive trends; = denotes no significant P value; − denotes negative trends; conditions: compared to standard PN (s-PN)
Excerpt: as §1, §2

[4] = tested on: pro-inflammatory cytokines I1-1β, I1-6, TNF-α; test: Ileal cytokine concentration, pro-inflammatory; format: in vivo, pig; design: key: +++ indicate P < 0.01; ++ indicates P < 0.05; + indicates positive trends; = denotes no significant P value; − denotes negative trends; conditions: compared to standard PN (s-PN)
Excerpt: as §1, §2

[5] = tested on: anti-inflammatory cytokines I1-8, I1-10; test: Ileal cytokine concentration, anti-inflammatory; format: in vivo, pig; design: key: +++ indicate P < 0.01; ++ indicates P < 0.05; + indicates positive trends; = denotes no significant P value; − denotes negative trends; conditions: compared to standard PN (s-PN)
Excerpt: as §1, §2

Il-6 = test: Serum cytokine quantification, Il-6; format: in vivo, pig; conditions: 10 mmol/L TPN (Group C)
Excerpt: as §1
as §2, with “Rabbit anti-pig polyclonal antibodies specific for IL-1beta and IL-6 were used to detect IL-1beta (17,500 kDa), Il-10 (18,600 kDa) and IL-6 (26,000 kDa). Membranes were developed using the Opti-4CN kit (Biorad) and photographed using the FOTO/Analyst Image Analysis System (Fotodyne, Inc., Hartland, Wis., USA). Densitometry of TNF-alpha, IL-1beta, IL-6, and Il-10 was performed using Collage Image Analysis Software 4.0 (Fotodyne, Inc.). Results are shown in FIG. 15 (Il-6), FIG. 16 (Illbeta), FIG. 17 (TNF-alpha) and FIG. 18 (Il-10).” left out

Il-1beta = test: Serum cytokine quantification, Il-1beta; format: in vivo, pig; conditions: 10 mmol/L TPN (Group C)
Excerpt: as §1
as §2, with “Rabbit anti-pig polyclonal antibodies specific for IL-1beta and IL-6 were used to detect IL-1beta (17,500 kDa), Il-10 (18,600 kDa) and IL-6 (26,000 kDa). Membranes were developed using the Opti-4CN kit (Biorad) and photographed using the FOTO/Analyst Image Analysis System (Fotodyne, Inc., Hartland, Wis., USA). Densitometry of TNF-alpha, IL-1beta, IL-6, and Il-10 was performed using Collage Image Analysis Software 4.0 (Fotodyne, Inc.). Results are shown in FIG. 15 (Il-6), FIG. 16 (Illbeta), FIG. 17 (TNF-alpha) and FIG. 18 (Il-10).” left out

TNF-alpha = test: Serum cytokine quantification, TNF-alpha; format: in vivo, pig; conditions: 10 mmol/L TPN (Group C)
Excerpt: as §1
as §2, with “Rabbit anti-pig polyclonal antibodies specific for IL-1beta and IL-6 were used to detect IL-1beta (17,500 kDa), Il-10 (18,600 kDa) and IL-6 (26,000 kDa). Membranes were developed using the Opti-4CN kit (Biorad) and photographed using the FOTO/Analyst Image Analysis System (Fotodyne, Inc., Hartland, Wis., USA). Densitometry of TNF-alpha, IL-1beta, IL-6, and Il-10 was performed using Collage Image Analysis Software 4.0 (Fotodyne, Inc.). Results are shown in FIG. 15 (Il-6), FIG. 16 (Illbeta), FIG. 17 (TNF-alpha) and FIG. 18 (Il-10).” left out

[6] = cited from earlier work
[7] = tested on: metastatic colorectal cancer patients; conditions: aqueous solution, pH 7.7, phase I clinical trial; cited from earlier work

CCCC(=O)OCC(COC(=O)CCC)OC(=O)CCC [Tributyrin]
average duodenal crypt length (crypt depth, FIG. 8) ([1]; 10 mmol/L TPN): gave the best results
average duodenal villous length (FIG. 7) ([1]; 10 mmol/L TPN): only slightly below the mean values determined for Groups B and D
average ileal crypt depth (FIG. 11) ([1]; 10 mmol/L TPN): significant difference
average jejunal crypt depth (FIG. 10) ([1]; 10 mmol/L TPN): lower
% Δ from PN, Colon C (crypt depth) ([1]; 10 mmol/L TPN (Groups A, C, D)): +9%
% Δ from PN, Duodenum C (crypt depth) ([1]; 10 mmol/L TPN (Groups A, C, D)): +11%
% Δ from PN, Duodenum V (villus height) ([1]; 10 mmol/L TPN (Groups A, C, D)): +32%
% Δ from PN, Ileum C (crypt depth) ([1]; 10 mmol/L TPN (Groups A, C, D)): +17%
% Δ from PN, Ileum V (villus height) ([1]; 10 mmol/L TPN (Groups A, C, D)): +14%
% Δ from PN, Jejunum C (crypt depth) ([1]; 10 mmol/L TPN (Groups A, C, D)): −8%
% Δ from PN, Jejunum V (villus height) ([1]; 10 mmol/L TPN (Groups A, C, D)): +14%
% Δ from PN, Total Total (crypt + villus) ([1]; 10 mmol/L TPN (Groups A, C, D)): +89%
% Δ from PN, Total C (crypt depth) ([1]; 10 mmol/L TPN (Groups A, C, D)): +29%
% Δ from PN, Total V (villus height) ([1]; 10 mmol/L TPN (Groups A, C, D)): +60%
Crypt (total) ([1]; 10 mmol/L in PN): +
Villus (total) ([1]; 10 mmol/L in PN): +
Total crypt depth ([1]; 10 mmol/L): +
Total villus height ([1]; 10 mmol/L): +
average duodenal crypt length (crypt depth, FIG. 8) ([1]; 30 mmol/L TPN): better crypt depth than S-PN, but is not as good as Groups A, C and D
average duodenal villous length (FIG. 7) ([1]; 30 mmol/L TPN): increased villous length compared to the other study groups
% Δ from PN, Colon C (crypt depth) ([1]; 30 mmol/L TPN (Group B)): +10%
% Δ from PN, Duodenum C (crypt depth) ([1]; 30 mmol/L TPN (Group B)): +12%
% Δ from PN, Duodenum V (villus height) ([1]; 30 mmol/L TPN (Group B)): +12%
% Δ from PN, Ileum C (crypt depth) ([1]; 30 mmol/L TPN (Group B)): +27%
% Δ from PN, Ileum V (villus height) ([1]; 30 mmol/L TPN (Group B)): +31%
% Δ from PN, Jejunum C (crypt depth) ([1]; 30 mmol/L TPN (Group B)): −14%
% Δ from PN, Jejunum V (villus height) ([1]; 30 mmol/L TPN (Group B)): +5%
% Δ from PN, Total Total (crypt + villus) ([1]; 30 mmol/L TPN (Group B)): +111%
average jejunal crypt depth (FIG. 10) ([1]; 30 mmol/L TPN (Group B)): lower
% Δ from PN, Total C (crypt depth) ([1]; 30 mmol/L TPN (Group B)): +63%
% Δ from PN, Total V (villus height) ([1]; 30 mmol/L TPN (Group B)): +48%
Crypt (total) ([1]; 30 mmol/L in PN): ++
Villus (total) ([1]; 30 mmol/L in PN): ++
Total crypt depth ([1]; 30 mmol/L): +
Total villus height ([1]; 30 mmol/L): +
average jejunal villous length (FIG. 9) ([1]; Group B, printed in b62 as 10 mmol/L TPN): relatively low
Jejunal Cytokine Concentration (less pro-inflammatory cytokines I1-1β, I1-6, TNF-α) ([2]; 10 mmol/L): ++ (++ indicates P < 0.05)
Jejunal Cytokine Concentration (less pro-inflammatory cytokines I1-1β, I1-6, TNF-α) ([2]; 30 mmol/L): ++ (++ indicates P < 0.05)
Jejunal Cytokine Concentration (more anti-inflammatory cytokines I1-8, I1-10) ([3]; 10 mmol/L): =
Jejunal Cytokine Concentration (more anti-inflammatory cytokines I1-8, I1-10) ([3]; 30 mmol/L): +
Ileal Cytokine Concentration (less pro-inflammatory cytokines I1-1β, I1-6, TNF-α) ([4]; 10 mmol/L): =
Ileal Cytokine Concentration (less pro-inflammatory cytokines I1-1β, I1-6, TNF-α) ([4]; 30 mmol/L): +
Ileal Cytokine Concentration (more anti-inflammatory cytokines I1-8, I1-10) ([5]; 10 mmol/L): −
Ileal Cytokine Concentration (more anti-inflammatory cytokines I1-8, I1-10) ([5]; 30 mmol/L): +

L-arginine, butanoate (3:4) [Arginine butyrate]
average duodenal crypt length (crypt depth, FIG. 8) ([1]; 10 mmol/L TPN): slightly better even than Groups A and D
average duodenal villous length (FIG. 7) ([1]; 10 mmol/L TPN): only slightly below the mean values determined for Groups B and D
average ileal crypt depth (FIG. 11) ([1]; 10 mmol/L TPN): close behind
average jejunal crypt depth (FIG. 10) ([1]; 10 mmol/L TPN): gave the best results
average jejunal villous length (FIG. 9) ([1]; 10 mmol/L TPN): gave the best results
improvement of the gut architecture in total ([1]; 10 mmol/L TPN (Group C), versus other groups): most prominent improvement of the gut architecture
% Δ from PN, Colon C (crypt depth) ([1]; 10 mmol/L TPN (Groups A, C, D)): +22%
% Δ from PN, Duodenum C (crypt depth) ([1]; 10 mmol/L TPN (Groups A, C, D)): +15%
% Δ from PN, Duodenum V (villus height) ([1]; 10 mmol/L TPN (Groups A, C, D)): +35%
% Δ from PN, Ileum C (crypt depth) ([1]; 10 mmol/L TPN (Groups A, C, D)): +7%
% Δ from PN, Ileum V (villus height) ([1]; 10 mmol/L TPN (Groups A, C, D)): +16%
% Δ from PN, Jejunum C (crypt depth) ([1]; 10 mmol/L TPN (Groups A, C, D)): +3%
% Δ from PN, Jejunum V (villus height) ([1]; 10 mmol/L TPN (Groups A, C, D)): +26%
% Δ from PN, Total Total (crypt + villus) ([1]; 10 mmol/L TPN (Groups A, C, D)): +124%
% Δ from PN, Total C (crypt depth) ([1]; 10 mmol/L TPN (Groups A, C, D)): +47%
% Δ from PN, Total V (villus height) ([1]; 10 mmol/L TPN (Groups A, C, D)): +77%
Crypt (total) ([1]; 10 mmol/L in PN): +
Villus (total) ([1]; 10 mmol/L in PN): +
Total crypt depth ([1]; 10 mmol/L): +
Total villus height ([1]; 10 mmol/L): +
gut architecture, systemic and local inflammation and systemic and local immunity (overall) ([1]; versus the Group which obtained standard PN): especially beneficial
Jejunal Cytokine Concentration (less pro-inflammatory cytokines I1-1β, I1-6, TNF-α) ([2]; 10 mmol/L): +++ (+++ indicate P < 0.01)
Jejunal Cytokine Concentration (more anti-inflammatory cytokines I1-8, I1-10) ([3]; 10 mmol/L): ++ (++ indicates P < 0.05)
Ileal Cytokine Concentration (less pro-inflammatory cytokines I1-1β, I1-6, TNF-α) ([4]; 10 mmol/L): ++ (++ indicates P < 0.05)
Ileal Cytokine Concentration (more anti-inflammatory cytokines I1-8, I1-10) ([5]; 10 mmol/L): +^4
serum levels of Il-6 (FIG. 15) (Il-6): significantly lower than in the standard PN group
serum levels of Il1-beta (FIG. 16) (Il-1beta): significantly lower than in the standard PN group
serum levels of TNF-alpha (FIG. 17) (TNF-alpha): lower than in the other Study (or intervention) Groups
clearance rate ([6]; human, in vivo): 93.6 ± 31.9 mL/min/kg
steady state concentration ([6]; infusion rate of 2000 mg/kg/day, patients with hemoglobinopathy): 15.7 ± 4.8 mg/L
tolerated dose [7]: 3 g/kg/day
